Laboratory results taken from patent publication US8748428B2, “Use of a PKC inhibitor” (Novartis AG, priority 2010, dated 2014).

Experiments:
Assay type in all cases: cell-based
[1] = system: IL-6 secretion in HBL1 cells; assay: IL-6 secretion (Quantikine ELISA); conditions: HBL1, ELISA of supernatant, 48 hours
Protocol: (§1) The fact that IL-6 is secreted from cells allowed for monitoring of IL-6 levels in cell supernatants. IL-6 secretion was determined by Quantikine ELISA using supernatant from treated cells. Cells were washed and plated at 100,000 cells/well in 100 ul in fresh media in round-bottom 96-well plates (Corning, #3358). The cells were then treated with DMSO or inhibitors at concentrations ranging from 80 nM to 10 uM (2-fold dilutions), and incubated at 37° C. for 48 hours. Then the conditioned media was transferred to v-bottom 96-well plates (Nunc, #12565436). The level of IL-6 secretion was determined by the Quantkine colorimetric ELISA kit from (R & D Systems, #D6050), according to the manufacturer's instructions. For the IL-6 ELISA, the conditioned media was diluted 1:2 with fresh media (except ion: the HBL1 conditioned media was not diluted, it was used 1:1). In FIG. 2, IL-6 secretion for each dose is expressed as a percentage of IL-6 secretion from cells treated with DMSO.

[2] = system: IL-6 secretion in TMD8 cells; assay: IL-6 secretion (Quantikine ELISA); conditions: Homo sapiens; TMD8, ELISA of supernatant, 48 hours
Protocol: as §1

OCI-Ly3 cells = assay: Growth inhibition, CellTiter-Glo, 5 days; conditions: Homo sapiens, OCI-Ly3, 120 h; ABC DLBCL, CARD11 mutation; 5 days treatment; read-out: growth inhibitory IC50, OCI-Ly3
From the text: (§2) Two pharmacological PKC inhibitors: (i) the pan-PKC inhibitor, Sotrastaurin, also known as AEB071, and (ii) the PKCa/b-selective compound, 3-[2-chloro-7-[(dimethylamino)methyl]-1-naphthalenyl]-4-[7-[2-(2-methoxyethoxy)ethoxy]-1H-indol-3-yl]-1H-pyrrole-2,5-dione (referred to herein as “Compound B”), were used to evaluate the proliferation of several diffuse large B cell lymphoma (DLBCL) lines. The IKKb-selective inhibitors N-(6-chloro-7-methoxy-9H-β-carbolin-8-yl)-2-methylnicotinamide (referred to herein as “MLN120B”) and N-[(2R,6R)-2,6-dimethyl-4-piperidinyl]-4-(7-fluoro-1H-indol-3-yl)-2-pyrimidinamine (referred to herein as “Compound A”) were used as control compounds. ABC DLBCL cell lines (OCI-LY3, OCI-LY10, HBL1, U2932, TMD8, Su-DHL2) and GC DLBCL cell lines (Su-DHL4, DB, K-422) were treated for 5 days with PKC inhibitors (A) Sotrastaurin (AEB071) or (B) Compound B; IKKb inhibitors (C) MLN120B or (D) Compound A. Cells were plated in 96-well plates (Corning, #3358) at 5000 cells/well in 100 μL and treated with DMSO or inhibitors at concentrations ranging from 160 nM to 20 μM (2-fold dilutions). Following 5 days of treatment, cells were lysed with CellTiter-Glo® Luminescent Cell Viability Assay reagent (Promega, G7573), lysates were transferred to opaque 96-well plates (Corning, #3971), and luminescence signal was read using the Envision. Percent growth was calculated relative to median DMSO signal.
(§3) While all ABC DLBCL cell lines were sensitive to IKK inhibitors, their response to PKC inhibitors varied strongly (Table 1A below). The cell lines that are insensitive to PKC inhibitors, OCI-Ly3 and Su-DHL2, have reported mutations in CARD11 and A20, respectively. […] The fact that these oncogenic lesions are thought to function downstream of PKCβ in CBM-NFkB signaling provides a molecular rationale for their insensitivity. […] See, Compagno, M., et al, “Mutations of multiple genes cause deregulation of NF-κB in diffuse large B-cell lymphoma” Nature, 459 (7247), 717-722 (2009)). […] Tables 1A and 1B below show the growth inhibitory IC50 values, which were determined by measuring ATP concentration (Cell Titer Glo), for the indicated compounds in the indicated cell lines. IC50 values were determined as the concentration of compound that leads to 50% reduction of cell growth.

OCI-Ly10 cells = assay: Growth inhibition, CellTiter-Glo, 5 days; conditions: Homo sapiens, OCI-Ly10, 120 h; ABC DLBCL, CD79A mutation; 5 days treatment; read-out: growth inhibitory IC50, OCI-Ly10
From the text: as §2, §3

DB cells = assay: Growth inhibition, CellTiter-Glo, 5 days; conditions: Homo sapiens, 120 h, GC DLBCL, no NFkB mutation, 5 days treatment, read-out: growth inhibitory IC50, DB
From the text: as §2, §3

TMD8 cells = assay: Growth inhibition, CellTiter-Glo, 5 days; conditions: Homo sapiens, TMD8, 120 h; ABC DLBCL, CD79B mutation; 5 days treatment; read-out: growth inhibitory IC50, TMD8
From the text: as §2, §3

HBL1 cells = assay: Growth inhibition, CellTiter-Glo, 5 days; conditions: HBL1, 120 h; ABC DLBCL, CD79B mutation; 5 days treatment; read-out: growth inhibitory IC50, HBL1
From the text: as §2, §3

K422 cells = assay: Growth inhibition, CellTiter-Glo, 5 days; conditions: 120 h; GC DLBCL, no NFkB mutation; 5 days treatment; read-out: growth inhibitory IC50, K422
From the text: as §2, §3

Su-DHL4 cells = assay: Growth inhibition, CellTiter-Glo, 5 days; conditions: Homo sapiens, SU-DHL-4, 120 h; GC DLBCL, no NFkB mutation; 5 days treatment; read-out: growth inhibitory IC50, Su-DHL4
From the text: as §2, §3

Su-DHL2 cells = assay: Growth inhibition, CellTiter-Glo, 5 days; conditions: Homo sapiens, SU-DHL-2, 120 h; ABC DLBCL, A20 mutation; 5 days treatment; read-out: growth inhibitory IC50, Su-DHL2
From the text: as §2, §3

U2392 cells = assay: Growth inhibition, CellTiter-Glo, 5 days; conditions: 120 h; ABC DLBCL, TAK1 mutation; 5 days treatment; read-out: growth inhibitory IC50, U2392
From the text: as §2, §3

SMILES: CN1CCN(c2nc(C3=C(c4c[nH]c5ccccc45)C(=O)NC3=O)c3ccccc3n2)CC1 [AEB071, 3-(1H-Indol-3-yl)-4-[2-(4-methylpiperazin-1-yl)quinazolin-4-yl]-1H-pyrrole-2,5-dione]
- IC50 [1]: < 200 nM
- IC50 [2]: < 200 nM
- IC50 (OCI-Ly3 cells): > 20 µM
- IC50 (OCI-Ly10 cells): 1300 nM
- IC50 (DB cells): > 20 µM
- IC50 (TMD8 cells): 200 nM
- IC50 (HBL1 cells): 500 nM
- IC50 (K422 cells): > 20 µM
- IC50 (Su-DHL4 cells): > 20 µM
- IC50 (Su-DHL2 cells): > 20 µM
- IC50 (U2392 cells): 5 µM
